From patent US7368279B2, “Three dimensional bioengineered smooth muscle tissue and sphincters and methods therefor” (The Regents of The University of Michigan, priority 2004, dated 2008)
“Also recorded” adds a separate entry of the source.

System: bioengineered IAS rings
Experiment: Isometric force (contraction/relaxation) of bioengineered IAS rings
Format: cell-based, rabbit
Protocol: Excitability and contractility of bioengineered IAS rings was measured using techniques adapted from previous work (Dennis et al., In Vitro Cellular & Developmental Biology Animal 36: 327-335, 2000. Dennis et al., American Journal of Physiology Cell Physiology 280: C288-C295, 2001). The diameter of the sphincter rings was measured and used to calculate cross-sectional area (CSA). The bioengineered sphincters were separated from their molds using forceps (FIG. 1 Panel E) and the minimum ring diameter was measured using a calibrated eyepiece and a 5× or 10× objective lens on an inverted microscope (Zeiss Axiovert 25, Thornwood, N.Y.). The cross section was circular, and therefore the CSA was calculated using the measured diameter. To measure the passive baseline force, the differentiation media in the plate containing the bioengineered sphincter was replaced with 37° C. Krebs solution (NaCl (119 mM), KCl (4.6 mM), NaHCO3 (15 mM), CaCl2 (1.5 mM), MgCl2 (1.2 mM), […], and glucose (11 mM)) and the plate was placed on a heated aluminum platform, which maintained a temperature of 37° C. until the testing was complete. For contractility measurements, one end of the bioengineered sphincter was anchored by a stainless steel pin (10 mm×0.1 mm diameter) to the PDMS substrate within the plate, while another stainless steel pin was bent in the shape of a hook and attached by canning wax to a force transducer (resolution of 1.4 μN and range of 2mN) as previously described (Dennis et al., In Vitro Cellular & Developmental Biology Animal 36: 327-335, 2000, Macpherson et al., J Physiol 500: 523-533, 1997) and as depicted in FIG. 1 (Panels F and G). The bioengineered sphincter was stretched approximately 50% of its resting length using a three-axis micromanipulator. The ring was allowed to sit for 20 minutes in order to reestablish a stable baseline level of force (Pb), which was measured as the average baseline passive force preceding stimulation. All force measurements were collected at 100 samples/second for 60 seconds and recorded using a computer with LabVIEW data acquisition software (National Instruments, Austin, Tex.). A median filter of rank 2 was applied to all raw force data before being stored to minimize digitization noise without causing a phase delay for rapidly changing forces. The peak isometric force (ΔP) was determined by subtracting the Pb from the total force values. Specific force (sΔP) was calculated by dividing ΔP by the CSA. Data analysis was done using LabVIEW and Microsoft Excel software programs. Each measurement was repeated at least three times and the mean value was recorded. Contractions were induced in the rings by the addition of acetylcholine. Dose-response relationships of acetylcholine were investigated in the range of 10^−6M to 10^−10M. Incremental doses of acetylcholine were added after the maximal response of the preceding concentration and the establishment of a new baseline. Relaxation response in the rings was induced by the addition of 8-Bromoadenosine 3′:5′-Cyclic Monophosphate (8-br-cAMP). Maximal relaxation was achieved after approximately 4 minutes and therefore relaxation measurements are collective of four consecutive 1-minute data recordings.

Structure (SMILES): Nc1ncnc2c1nc(Br)n2[C@@H]1O[C@@H]2COP(=O)(O)O[C@H]2[C@H]1O [8-br-cAMP, 8-Bromoadenosine 3′:5′-Cyclic Monophosphate]
- relaxation of acetylcholine-induced contraction (10^−5 M 8-br-cAMP added after 10^−6 M acetylcholine, Krebs buffer): rapid relaxation; also recorded: immediate relaxation
- ΔP (relaxation response) (10^−5 M 8-br-cAMP, 4 minutes, 0 Ca2+/2 mM EGTA Krebs): −23±4 μN
- average ΔP (relaxation from basal tone) (10^−5 M 8-br-cAMP, 4 minutes, Krebs buffer): −16.3±2.0 μN
